Reference: patent publication US4659825A, “Isomeric O-phosphonylmethyl derivatives of enantiomeric and racemic 9-(2,3-dihydroxypropyl)adenine” (Ceskoslovenska akademie, priority 1983, dated 1987)

Test system: Pyrrhocoris apterus L.
Test: Ovicidal activity (chemosterilizing): inhibition of egg hatching in the first and second egg batch after oral administration to adults of both sexes
Format: in vivo
Settings: drinking water
Procedure: The test animals were freshly emerged adults of Pyrrhocoris apterus L. and the tested compounds were administered as solutions in drinking water. The concentration 1 mg.ml^-1 corresponded to the dose of 1 mg/g/24 h. Each test was performed on a group of 10 males and 10 females and evaluated according to toxicity and hatchability of the eggs of the first and the second egg batches.

For `Nc1ncnc2c1ncn2CC(O)COCP(=O)(O)O` (racemic) [3'-isomer], the “Inhibition of egg hatching in the first and second egg batch (% inhibition, related to control eggs)” value (0.1 mg.ml^-1 of water) was 61%.

For `Nc1ncnc2c1ncn2CC(O)CO` (racemic) [compound 3, (RS)-9-(2,3-dihydroxypropyl)adenine], the “Inhibition of egg hatching in the first and second egg batch (% inhibition, related to control eggs)” value (0.01 mg.ml^-1 of water) was 0%, the “Inhibition of egg hatching in the first and second egg batch (% inhibition, related to control eggs)” value (0.05 mg.ml^-1 of water) was 10% and the “Inhibition of egg hatching in the first and second egg batch (% inhibition, related to control eggs)” value (0.1 mg.ml^-1 of water) was 37%. For the same compound, the “Inhibition of egg hatching in the first and second egg batch (% inhibition, related to control eggs)” value (1.0 mg.ml^-1 of water (1 mg.ml^-1 corresponded to the dose of 1 mg/g/24 h)) was 100%.

For `Nc1ncnc2c1ncn2CC(CO)OCP(=O)(O)O` (racemic) [2'-isomer], the “Inhibition of egg hatching in the first and second egg batch (% inhibition, related to control eggs)” value (0.1 mg.ml^-1 of water) was 27%.
